Structures can show the parent of a compound that is named as a salt.
What was measured:
Type in all cases: functional, cell-based
ASPC1 = assay: Cytotoxicity against human ASPC1 cells assessed as inhibition of cell growth incubated for 72 hrs by SRB assay; settings: ASPC1, 72 h
PANC-1 = assay: Cytotoxicity against human PANC-1 cells assessed as inhibition of cell growth incubated for 72 hrs by SRB assay; settings: PANC-1, 72 h
MDA-MB-231 = assay: Cytotoxicity against human MDA-MB-231 cells assessed as inhibition of cell growth incubated for 72 hrs by SRB assay; settings: MDA-MB-231, 72 h

SMILES | IC50 (ASPC1) | IC50 (PANC-1) | IC50 (MDA-MB-231)
C=C(CCCCCCCC(=O)OC[C@@]1(C)CCC[C@]2(C)[C@H]3COC(=O)C3=C[C@@H](OC(=O)c3ccc([N+](=O)[O-])cc3)[C@@H]12)C(=O)O | > 30 µM | > 30 µM | > 30 µM
C[C@]1(COC(=O)CCCCCCC/C=C/C(=O)O)CCC[C@]2(C)[C@H]3COC(=O)C3=C[C@@H](OC(=O)c3ccc([N+](=O)[O-])cc3)[C@@H]12 | > 30 µM | > 30 µM | > 30 µM
COc1cccc2c1C(=O)c1c(O)c3c(c(O)c1C2=O)C[C@@](O)(C(=O)CO)C[C@@H]3O[C@H]1C[C@H](N)[C@H](O)[C@H](C)O1 [DOXORUBICIN HYDROCHLORIDE] | 0.3 µM | 0.9 µM | 0.2 µM
